Data reported in PubChem BioAssay AID1259407 (Chemical Carcinogenesis Research Information System (CCRIS), 2018).
Activity calls are given as the source filed them. How the calls were made is not given here.

System: CCRIS mutagenicity, Ames/micronucleus/aberration tests
Experiment: CCRIS mutagenicity studies
Conditions: Test System: AMES SALMONELLA TYPHIMURIUM
Description: The CCRIS database contains chemical records with carcinogenicity, mutagenicity, tumor promotion, and tumor inhibition test results. It was developed by the National Cancer Institute (NCI). Data are derived from studies cited in primary journals, current awareness tools, NCI reports, and other sources. Test results have been reviewed by experts in carcinogenesis and mutagenesis.
CCRIS provides historical information from the years 1985 - 2011. It is no longer updated.
This is an archive assay for CCRIS mutagenicity studies.

[1] = Strain/Indicator: TA97, Metabolic Activation: NONE, Method: PREINCUBATION
[2] = Strain/Indicator: TA102, Metabolic Activation: NONE, Method: PREINCUBATION

Question: How did the mutagenic call (Strain/Indicator: TA97, Metabolic Activation: HAMSTER, LIVER, S-9, AROCLOR 1254 (10 OR 30%), Method: PREINCUBATION) turn out when `CC(C)(OOC(C)(C)c1ccccc1)c1ccccc1` was run?
Answer: inactive; negative

Question: What about the mutagenic call [1] of the same compound?
Answer: inactive; negative

Question: And the mutagenic call (Strain/Indicator: TA97, Metabolic Activation: RAT, LIVER, S-9, AROCLOR 1254 (10 OR 30%), Method: PREINCUBATION)?
Answer: inactive; negative

Question: And the mutagenic call (Strain/Indicator: TA97A, Metabolic Activation: MOUSE LIVER S-9, AROCLOR 1254, Method: PREINCUBATION)?
Answer: inactive; negative

Question: What about the mutagenic call (Strain/Indicator: TA97A, Metabolic Activation: NONE, Method: PREINCUBATION) of the same compound?
Answer: inactive; negative

Question: What about the mutagenic call (Strain/Indicator: TA97A, Metabolic Activation: RAT LIVER S-9, AROCLOR 1254, Method: PREINCUBATION) of the same compound?
Answer: inactive; negative

Question: What about the mutagenic call (Strain/Indicator: TA98, Metabolic Activation: HAMSTER, LIVER, S-9, AROCLOR 1254 (10 OR 30%), Method: PREINCUBATION) of the same compound?
Answer: inactive; negative

Question: What about the mutagenic call (Strain/Indicator: TA98, Metabolic Activation: NONE, Method: FLUCTUATION (MICROTITER)) of the same compound?
Answer: inactive; negative

Question: What about the mutagenic call (Strain/Indicator: TA98, Metabolic Activation: NONE, Method: PREINCUBATION) of the same compound?
Answer: inactive; negative

Question: What about the mutagenic call (Strain/Indicator: TA98, Metabolic Activation: RAT LIVER S-9, AROCLOR 1254, Method: FLUCTUATION (MICROTITER)) of the same compound?
Answer: inactive; negative

Question: What about the mutagenic call (Strain/Indicator: TA98, Metabolic Activation: RAT, LIVER, S-9, AROCLOR 1254 (10 OR 30%), Method: PREINCUBATION) of the same compound?
Answer: inactive; negative

Question: And the mutagenic call (Strain/Indicator: TA100, Metabolic Activation: HAMSTER, LIVER, S-9, AROCLOR 1254 (10 OR 30%), Method: PREINCUBATION)?
Answer: inactive; negative

Question: And the mutagenic call (Strain/Indicator: TA100, Metabolic Activation: MOUSE LIVER S-9, AROCLOR 1254, Method: PREINCUBATION)?
Answer: inactive; negative

Question: What about the mutagenic call (Strain/Indicator: TA100, Metabolic Activation: NONE, Method: PREINCUBATION) of the same compound?
Answer: inactive; negative

Question: And the mutagenic call (Strain/Indicator: TA100, Metabolic Activation: RAT LIVER S-9, AROCLOR 1254, Method: PREINCUBATION)?
Answer: inactive; negative

Question: And the mutagenic call (Strain/Indicator: TA100, Metabolic Activation: RAT, LIVER, S-9, AROCLOR 1254 (10 OR 30%), Method: PREINCUBATION)?
Answer: inactive; negative

Question: And the mutagenic call [2]?
Answer: inactive; negative

Question: What about the mutagenic call (Strain/Indicator: TA102, Metabolic Activation: RAT LIVER S-9, AROCLOR 1254, Method: PREINCUBATION) of the same compound?
Answer: inactive; negative

Question: And the mutagenic call (Strain/Indicator: TA104, Metabolic Activation: MOUSE LIVER S-9, AROCLOR 1254, Method: PREINCUBATION)?
Answer: inactive; negative

Question: And the mutagenic call (Strain/Indicator: TA104, Metabolic Activation: NONE, Method: PREINCUBATION)?
Answer: inactive; negative

Question: And the mutagenic call (Strain/Indicator: TA104, Metabolic Activation: RAT LIVER S-9, AROCLOR 1254, Method: PREINCUBATION)?
Answer: inactive; negative

Question: And the mutagenic call (Strain/Indicator: TA1535, Metabolic Activation: HAMSTER, LIVER, S-9, AROCLOR 1254 (10 OR 30%), Method: PREINCUBATION)?
Answer: inactive; negative

Question: What about the mutagenic call (Strain/Indicator: TA1535, Metabolic Activation: NONE, Method: PREINCUBATION) of the same compound?
Answer: inactive; negative

Question: And the mutagenic call (Strain/Indicator: TA1535, Metabolic Activation: RAT, LIVER, S-9, AROCLOR 1254 (10 OR 30%), Method: PREINCUBATION)?
Answer: inactive; negative

Question: And the mutagenic call (Strain/Indicator: TA1537, Metabolic Activation: NONE, Method: FLUCTUATION (MICROTITER))?
Answer: inactive; negative

Question: And the mutagenic call (Strain/Indicator: TA1537, Metabolic Activation: RAT LIVER S-9, AROCLOR 1254, Method: FLUCTUATION (MICROTITER))?
Answer: inactive; negative

Question: What about the mutagenic call (Strain/Indicator: TA7001, Metabolic Activation: NONE, Method: FLUCTUATION (MICROTITER)) of the same compound?
Answer: inactive; negative

Question: What about the mutagenic call (Strain/Indicator: TA7001, Metabolic Activation: RAT LIVER S-9, AROCLOR 1254, Method: FLUCTUATION (MICROTITER)) of the same compound?
Answer: inactive; negative

Question: What about the mutagenic call (Strain/Indicator: TA7002, Metabolic Activation: NONE, Method: FLUCTUATION (MICROTITER)) of the same compound?
Answer: inactive; negative

Question: What about the mutagenic call (Strain/Indicator: TA7002, Metabolic Activation: RAT LIVER S-9, AROCLOR 1254, Method: FLUCTUATION (MICROTITER)) of the same compound?
Answer: inactive; negative

Question: And the mutagenic call (Strain/Indicator: TA7003, Metabolic Activation: NONE, Method: FLUCTUATION (MICROTITER))?
Answer: inactive; negative

Question: And the mutagenic call (Strain/Indicator: TA7003, Metabolic Activation: RAT LIVER S-9, AROCLOR 1254, Method: FLUCTUATION (MICROTITER))?
Answer: inactive; negative

Question: And the mutagenic call (Strain/Indicator: TA7004, Metabolic Activation: NONE, Method: FLUCTUATION (MICROTITER))?
Answer: inactive; negative

Question: And the mutagenic call (Strain/Indicator: TA7004, Metabolic Activation: RAT LIVER S-9, AROCLOR 1254, Method: FLUCTUATION (MICROTITER))?
Answer: inactive; negative

Question: What about the mutagenic call (Strain/Indicator: TA7005, Metabolic Activation: NONE, Method: FLUCTUATION (MICROTITER)) of the same compound?
Answer: inactive; negative

Question: What about the mutagenic call (Strain/Indicator: TA7005, Metabolic Activation: RAT LIVER S-9, AROCLOR 1254, Method: FLUCTUATION (MICROTITER)) of the same compound?
Answer: inactive; negative

Question: And the mutagenic call (Strain/Indicator: TA7006, Metabolic Activation: NONE, Method: FLUCTUATION (MICROTITER))?
Answer: inactive; negative

Question: And the mutagenic call (Strain/Indicator: TA7006, Metabolic Activation: RAT LIVER S-9, AROCLOR 1254, Method: FLUCTUATION (MICROTITER))?
Answer: inactive; negative

Question: How did the mutagenic call [1] turn out when `C=CCOC(=O)CCCCC` was run?
Answer: inactive; negative

Question: What about the mutagenic call (Strain/Indicator: TA97, Metabolic Activation: RAT, LIVER, S-9, AROCLOR 1254, Method: PREINCUBATION) of the same compound?
Answer: inactive; negative

Question: And the mutagenic call [2]?
Answer: inactive; negative

Question: And the mutagenic call (Strain/Indicator: TA102, Metabolic Activation: RAT, LIVER, S-9, AROCLOR 1254, Method: PREINCUBATION)?
Answer: inactive; negative

Question: What does the source list for `CC(=O)N[C@@H](CS/C(Cl)=C/Cl)C(=O)O`?
Answer: mutagenic call (Strain/Indicator: TA2638, Metabolic Activation: NONE, Method: PREINCUBATION): active; positive; mutagenic call (Strain/Indicator: TA2638, Metabolic Activation: RAT, KIDNEY, CYTOSOL, Method: PREINCUBATION): active; positive
